Laboratory results: patent publication US20160051567A1, “PREVENTION AND TREATMENT OF KIDNEY DAMAGE” (METSELEX, INC., priority 2013, published 2016)
Entries after “also recorded” stand apart in the source; their conditions may differ.

Columns and labels:
[1] = system: human renal proximal tubular epithelial cells (RPTE); test: Viability assay (MultiTox-Glo) in RPTE cells; type: cell-based; conditions: 15 μM to 1200 μM, 24 hours
Experimental: (§1) Cell culture: RPTE cells were grown in Renal Epithelial Cell Basal Medium (REBM) with full supplements at 37° C. in 5% CO2 incubator as per supplier's instructions. RPTE cells were able to proliferate for 6-8 passages under the culture conditions.
(§2) Viability and Cytotoxicity Assays: Cytotoxicity and viability were determined using MultiTox-Glo Multiplex Cytotoxicity Assay kit as per manufacturer's protocols. RPTE cells were seeded in 96-well culture plates at a density of 1.2×10^4 cells per well. Subsequently, TUDCA was added to the wells to achieve final concentrations of 15, 150, 300, 450, 600, and 1200 μM. Following 24 hours of culture, to determine viability, 50 μL of GF-AFC Reagent was added to each well. The plates were gently shaken and incubated at 37° C. for 30 minutes in the dark. The cell viability was determined by measuring fluorescence at 400 nmEx/505 nmEm. Subsequently, to determine cytotoxicity, 50 μL of AAF-Glo Reagent was added to each well. The plates were shaken gently and incubated at room temperature for 15 minutes in the dark. Cytotoxicity was determined by measuring luminescence as per manufacturer's protocol.

p38 [2] = test: Western blot for p-p38 in kidney after AKI; type: in vivo; conditions: rat kidney after AKI, TUDCA vs vehicle group
Experimental: (§3) Rat model of AKI: All experiments were performed in accordance with the Institutional Animal Care and Use Committee. Six to eight week old Sprague-Dawley rats were anaesthetized by isoflurane gas, a midline abdominal incision was made, and bilateral renal pedicles were clamped for 45 minutes maintaining body temperature at 37° C. After removing the clamps, the abdomen was closed in two layers by using 4-0 absorbable sutures and Reflex 9 mm clips. Blood samples were obtained daily by tail vein puncture. Blood urea levels were measured by the improved Jung method using the QuantiChrom™ Urea Assay Kit as per manufacturer's protocol. Kidneys were harvested five days following surgery.
(§4) Administration of TUDCA: 200 mg/mL of TUDCA (Sigma) was dissolved in phosphate buffered saline at pH 7.5. […]
(§5) Protein extraction: Frozen kidney tissue was ground in liquid nitrogen using a pestle and mortar. […] The amount of protein present in the solution was quantified by the Bicinchoninic Acid Protein Assay kit as per manufacturer's protocol.
(§6) Western blot analysis: 20 μg of protein was mixed with SDS-PAGE sample buffer, boiled for 5 minutes, electrophoresed on a 12% Tris-HCl SDS-PAGE gel for 1 hour at 200 V, and electroblotted onto a nitrocellulose membrane. […] The immunoblot was detected using SuperSignal West Femto Maximum Sensitivity Substrate Kit. […]

JNK [3] = test: Western blot for JNK in RPTE cells after cryopreservation injury; type: cell-based, human; conditions: 100 and 150 μM
Experimental: as §1
(§7) Cryopreservation injury: We have utilized a published cell culture model of cryopreservation injury. In brief, RPTE cells were grown to 80% confluence in the complete medium containing TUDCA or vehicle. The complete medium was then replaced with University of Wisconsin solution containing TUDCA or vehicle. The culture plates were subsequently incubated in a temperature-regulated refrigerator at 4° C. for 48 hours. […]
as §5, §6

rat model of AKI [4] = test: Histological injury score (PAS stain) of kidney sections after AKI; type: in vivo; conditions: five days after AKI, 400 mg/kg/day
Experimental: as §3
(§8) Administration of TUDCA: 200 mg/mL of TUDCA (Sigma) was dissolved in phosphate buffered saline at pH 7.5. 400 mg/kg of TUDCA or equal volume of vehicle was administered to rats by daily intraperitoneal injection from three days prior to surgery […] to five days (day 5) following surgery. The TUDCA dose was based on previous studies and its solubility at physiological pH.
(§9) Histology and TUNEL assay: 4% paraformaldehyde-fixed, paraffin-embedded 5 μm kidney sections were stained with Periodic acid-Schiff (PAS) stain using standard methods. Histological examination was performed by a renal pathologist in a blinded fashion. Histological injury was scored based on the percentage of tubular cell necrosis, dilation, and cell detachment as per the PAS protocol. Reagents for the PAS assay were purchased from Sigma-Aldrich (St. Louis, Mo.) and the accompanying protocol was used. […] Apoptotic cells were detected by TUNEL assay using an APO-DIRECT™ kit as per manufacturer's protocol. The average injury score and percentage of TUNEL-positive cells from the renal cortex (superficial and deep), medulla (outer and inner), and papilla were counted and calculated separately and averaged to obtain the total score. […]

[5] = TUDCA over UDCA; cited from earlier work
caspase-12 = test: Western blot for active caspase-12 in kidney after AKI; type: in vivo; conditions: rat kidney after AKI, TUDCA- vs vehicle-treated rats
Experimental: as §3, §4, §5, §6

cell culture = conditions: has been shown; cited from earlier work
rat model of AKI [6] = test: TUNEL assay of kidney sections after AKI; type: in vivo
Experimental: as §3, with “surgery. […]” for “surgery.”
as §9, with “Histological examination was performed by a renal pathologist in a blinded fashion.” left out, “protocol.” for “protocol. Reagents for the PAS assay were purchased from Sigma-Aldrich (St. Louis, Mo.) and the accompanying protocol was used.”

p38 [7] = test: Western blot for p38 in RPTE cells after cryopreservation injury; type: cell-based, human; conditions: 100 and 150 μM
Experimental: as §1, §7, §5, §6

ERK1/2 [8] = test: Western blot for phosphorylated ERK1/2 in RPTE cells after cryopreservation injury; type: cell-based, human
Experimental: as §1, §7, §5, §6

rat model of AKI [9] = test: Rat model of AKI (warm ischemia reperfusion), blood urea levels; type: in vivo; conditions: 400 mg/kg/day intraperitoneal
Experimental: as §3, §8

caspase-9 [10] = test: Western blot for active caspase-9 in kidney after AKI; type: in vivo; conditions: rat kidney after AKI, Western blot with densitometry, p<0.01
Experimental: as §3, §4, §5, §6

procaspase-12 = test: Western blot for procaspase-12 in RPTE cells after cryopreservation injury; type: cell-based, human
Experimental: as §1, §7, §5, §6

caspase-8 [11] = test: Western blot for active caspase-8 in kidney after AKI; type: in vivo; conditions: rat kidney after AKI, TUDCA- vs vehicle-treated rats
Experimental: as §3, §4, §5, §6

[12] = system: human renal proximal tubular epithelial cells (RPTE); test: Cytotoxicity assay (MultiTox-Glo) in RPTE cells; type: cell-based; conditions: 24 hours
Experimental: as §1, §2

caspase-8 [13] = test: Western blot for caspase-8 in RPTE cells after cryopreservation injury; type: cell-based, human
Experimental: Cell culture: RPTE cells were grown in Renal Epithelial Cell Basal Medium (REBM) with full supplements at 37° C. in 5% CO2 incubator as per supplier's instructions. RPTE cells were able to proliferate for 6-8 passages under the culture conditions. Cryopreservation injury: We have utilized a published cell culture model of cryopreservation injury. In brief, RPTE cells were grown to 80% confluence in the complete medium containing TUDCA or vehicle. The complete medium was then replaced with University of Wisconsin solution containing TUDCA or vehicle. The culture plates were subsequently incubated in a temperature-regulated refrigerator at 4° C. for 48 hours. To simulate warm reperfusion phase of kidney transplantation, University of Wisconsin solution was replaced with complete medium containing TUDCA or vehicle, and cells were cultured for an additional 24 hours at 37° C. We used 100 μM or 150 μM of TUDCA for these experiments. Protein extraction: Frozen kidney tissue was ground in liquid nitrogen using a pestle and mortar. […] The amount of protein present in the solution was quantified by the Bicinchoninic Acid Protein Assay kit as per manufacturer's protocol. […] The immunoblot was detected using SuperSignal West Femto Maximum Sensitivity Substrate Kit. […]

JNK [14] = test: Western blot for p-JNK in kidney after AKI; type: in vivo; conditions: rat kidney after AKI, TUDCA vs vehicle group
Experimental: as §3, §4, §5, §6

caspase-3 = test: Caspase-3 activity assay in RPTE cells after cryopreservation injury; type: cell-based, human; conditions: 150-600 μM, dose-dependent, p<0.05
Experimental: as §1, §7, §5
Caspase-3 activity assay: The caspase-3 activity in kidney and RPTE extracts was quantified using Apo-One® Homogeneous Caspase-3/7 Assay kit as per the manufacturer's protocol. […] Fluorescence was measured by Spectramax M12 fluorescent plate reader (Molecular Devices) using wavelengths of 485 nmEx/520 nmEm. […]

ERK1/2 [15] = test: Western blot for ERK1/2 in kidney after AKI; type: in vivo; conditions: rat kidney after AKI, vs controls, p=0.29
Experimental: as §3, §4, §5, §6

caspase-9 [16] = test: Caspase-9 activity assay in RPTE cells after cryopreservation injury; type: cell-based, human; conditions: 100 μM and 150 μM, p<0.05
Experimental: as §1
Cryopreservation injury: We have utilized a published cell culture model of cryopreservation injury. In brief, RPTE cells were grown to 80% confluence in the complete medium containing TUDCA or vehicle. The complete medium was then replaced with University of Wisconsin solution containing TUDCA or vehicle. The culture plates were subsequently incubated in a temperature-regulated refrigerator at 4° C. for 48 hours. To simulate warm reperfusion phase of kidney transplantation, University of Wisconsin solution was replaced with complete medium containing TUDCA or vehicle, and cells were cultured for an additional 24 hours at 37° C. We used 100 μM or 150 μM of TUDCA for these experiments.
Caspase-9 Assay: The caspase-9 activity was measured in RPTE cells using Caspase-9 Assay kit. RPTE cells were suspended in 50 μL of chilled Cell Lysis Buffer and incubated on ice for 10 minutes. Subsequently, 50 μL of 2× Reaction Buffer and 5 μL of 1 mM LEHD-AFC substrate was added to each sample and the mixtures were incubated at 37° C. for 2 hours. The caspase-9 activity was quantified by measuring […].

C[C@H](CCC(=O)NCCS(=O)(=O)O)[C@H]1CC[C@H]2[C@@H]3[C@@H](O)C[C@@H]4C[C@H](O)CC[C@]4(C)[C@H]3CC[C@]12C [TUDCA, tauroursodeoxycholic acid]
cell viability [1]: None of the tested concentrations of TUDCA decreased cell viability | amount of p-p38 (p38 [2]): No difference | effect on JNK (JNK [3]): no effect | histological injury vs vehicle-treated rats (rat model of AKI [4]; deep cortex, p<0.001): significantly less injury | histological injury vs vehicle-treated rats (rat model of AKI [4]; medulla or papilla): no differences | histological injury vs vehicle-treated rats (rat model of AKI [4]; superficial cortex, p<0.05): significantly less injury | solubility at physiological pH compared with UDCA [5]: higher solubility at physiological pH | activation of caspase-12 (ER-stress pathway) (caspase-12): no significant difference | safe concentrations in cell culture experiments (cell culture): safe in concentrations ranging from 100 nM up to 5 mM | TUNEL-positive cells vs vehicle-treated rats (rat model of AKI [6]; outer strip of the outer medulla, p<0.001): significantly less TUNEL-positive cells | TUNEL-positive cells vs vehicle-treated rats (rat model of AKI [6]; superficial and deep cortices, p<0.05): significantly less TUNEL-positive cells | effect on p38 (p38 [7]): no effect | activation of ERK1/2 (phosphorylated ERK1/2) (ERK1/2 [8]; 100 μM, p<0.05): activated ERK1/2 | activation of ERK1/2 (phosphorylated ERK1/2) (ERK1/2 [8]; 150 μM, p<0.01): activated ERK1/2 | elevation in blood urea levels vs vehicle group (rat model of AKI [9]; days 1 (p<0.001) and 2 (p<0.01) following AKI): significantly less elevation in blood urea levels | blood urea vs vehicle group (rat model of AKI [9]; days 3-5 following AKI): blood urea was lower in the TUDCA-treated rats, the difference was not statistically significant | activation of caspase-9 (mitochondrial pathway of apoptosis) (caspase-9 [10]): significantly inhibited | activation of procaspase-12 (ER-stress pathway) (procaspase-12): no effect | activation of caspase-8 (death-receptor pathway) (caspase-8 [11]): no significant difference | cytotoxicity ([12]; 1200 μM, p<0.05): cytotoxic | cytotoxicity ([12]; 15 to 600 μM): did not cause cytotoxicity | activation of procaspase-8 (death receptor pathway) (caspase-8 [13]): no effect | amount of p-JNK (JNK [14]): No difference | caspase-3 activation after cryopreservation injury (caspase-3): significantly inhibited | activation of ERK1/2 (ERK1/2 [15]): increased ERK1/2 levels in two out of three rats; also recorded: increased activation of ERK1/2 in the TUDCA group, although without statistical significance | caspase-9 activation after cryopreservation injury (caspase-9 [16]): significantly inhibited
